The subject of series [1] is epimastigote form of T. cruzi. Briefly: In vitro epimastigote activity assay (alamarBlue). In kind it is cell-based, Trypanosoma cruzi strain Y. The note with it: for IC50: Trypanosoma cruzi, 72 h, epimastigote form of T. cruzi, 72 h incubation at 26 °C, mean ± standard deviation; for SI (selectivity index, CC50/IC50): against the epimastigote form of T. cruzi, CC50 murine macrophages. As for the experimental part: This assay is based on the use of alamarBlue. The alamarBlue reagent contains resazurin, which emits blue fluorescence under normal conditions. However, when the parasites are still alive and in contact with cell metabolism, the reagent is reduced to resorufin, which emits pink fluorescence.
In 96-well plates, serial dilutions of each compound were added with parasites at a concentration of 10^6 cells/mL in a final volume of 200 µL. Finally, 10% alamarBlue reagent was added, with 20 µL per well.
After 72 h of incubation at 26 °C, the plate was introduced into the plate reader and the fluorescence (570 nm excitation, 585 nm emission) of each well was determined using the EnSpire Multimode Plate Reader® (PerkinElmer, Thermo Fischer Scientific, Madrid, Spain). Finally, using a non-linear regression analysis in Graphpad Prism 9.0.0. the inhibitory concentration 50 (IC50) was calculated.
Inhibitory and cytotoxic concentrations (IC50, IC90, and CC50) were determined in duplicate on three different days using non-linear regression [Inhibitor] vs. response variable slope (four parameters) using non-linear regression analysis with 95% confidence, using GraphPad Prism 10.1.1 statistical software. The analysis was developed using Tukey’s test, considering significant values of p < 0.05. ANOVA analysis was also performed using GraphPad Prism 10.1.1.

Series [2] concerns Murine macrophages J774.A1. Put plainly: Cytotoxicity assay (alamarBlue). The note with it: for IC50 (cytotoxic concentration 50, CC50): 24 h. Type of series: cell-based. How it is done:
Murine macrophages J774.A1 strain ATCC #TIB-67, acquired from American Type Culture Collection (ATTC, LGC Promochem, Barcelona, Spain), were cultured in DMEM medium and maintained at 37 °C and 5% CO2. This assay followed the same principle as the previous one, but in this case, macrophages were used instead of parasites to determine the toxicity of the compounds. A total of 50 μL with a concentration of 2 × 10^5 cells/mL was added to each well with serial dilutions of the compounds in 50 μL of RPMI medium. After this, 10% of alamarBlue™ reagent was added and the plate was incubated at 37 °C and 5% CO2 for 24 h. After this time, the fluorescence was read using the EnSpire Multimode Plate Reader® and the cytotoxic concentration 50 (IC50) was calculated. Inhibitory and cytotoxic concentrations (IC50, IC90, and CC50) were determined in duplicate on three different days using non-linear regression [Inhibitor] vs. response variable slope (four parameters) using non-linear regression analysis with 95% confidence, using GraphPad Prism 10.1.1 statistical software. The analysis was developed using Tukey’s test, considering significant values of p < 0.05. ANOVA analysis was also performed using GraphPad Prism 10.1.1.
(In general: Resazurin is reduced to fluorescent resorufin, in cell work by metabolically active cells.)

Series [3] concerns amastigote form of T. cruzi. Put plainly: In vitro amastigote activity assay (alamarBlue, intracellular parasites in macrophages). In kind it is cell-based, Trypanosoma cruzi. The conditions noted are these: for IC50: Trypanosoma cruzi, Macrophage, amastigote form of T. cruzi in macrophages, 24 h with compound at 37 °C, mean ± standard deviation; for SI (selectivity index, CC50/IC50): against the amastigote form of T. cruzi, CC50 murine macrophages. How it is done:
To perform the assay against the intracellular form of the parasite, the same colorimetric method based on the alamarBlue was developed. To produce the internalization of the parasites, an excess of epimastigote forms were added (10^5:10^4 parasites/macrophages in 100 µL of DMEM) to a 96-well plate for 24 h at 37 °C. Then, the wells were washed 3 times to eliminate the non-internalized parasites, and the serial dilutions of the compounds were added and dissolved in DMEM medium. After another incubation of 24 h at 37 °C, the drugs were eliminated and the cells were lysed with 0.05% SDS for 30 s. After adding LIT in a final volume of 200 µL and 10% of alamarBlue™ reagent, the plates were incubated for 96 h to promote the externalization of the parasites. Finally, the fluorescence was read using the EnSpire Multimode Plate Reader® and the inhibitory concentration 50 (IC50) was calculated. Inhibitory and cytotoxic concentrations (IC50, IC90, and CC50) were determined in duplicate on three different days using non-linear regression [Inhibitor] vs. response variable slope (four parameters) using non-linear regression analysis with 95% confidence, using GraphPad Prism 10.1.1 statistical software. The analysis was developed using Tukey’s test, considering significant values of p < 0.05. ANOVA analysis was also performed using GraphPad Prism 10.1.1.

Series [4] concerns L3 larvae of Culex pipiens. Briefly: Larvicidal (in vivo toxicity) assay against mosquito larvae. As for the experimental part: The L3 larvae from Culex pipiens, used in the cytotoxicity assay, were cultured at the Laboratorio de Entomología Médica of the Instituto Universitario de Enfermedades Tropicales y Salud Pública de Canarias in Tenerife, Spain.
For this purpose, 3 mL of sterile water with food for 48 h was added to 24-well plates, following WHO guidelines of necessary nutrients. In each well, one L3 larva of Culex pipiens was added, together with different concentrations of the compounds to be tested (IC90 and two times IC90). In addition, negative controls, without treatment and with the maximum amount of DMSO added in the treatments, and positive controls, benznidazole as the reference treatment and triton, previously reported to be toxic to larvae, were added. All experiments were performed in duplicate and repeated on 3 different days, observing larval viability at different times (1, 3, 12, 24, and 48 h after the start of treatment).

Where [5] appears, read: murine macrophages, mean ± standard deviation.
Where [6] appears, read: 2IC90 (two times IC90) of compound, 1 h.
Where [7] appears, read: 2IC90 (two times IC90) of compound, 3 h.
Where [8] appears, read: 2IC90 (two times IC90) of compound, 12 h.
Where [9] appears, read: 2IC90 (two times IC90) of compound, 24 h.
[10] abbreviates: 2IC90 (two times IC90) of compound, 48 h.

In the case of `N#C/C=C/C(=O)Nc1ccccc1` [A], in series [1], the half-inhibitory concentration (IC50) (as a rule, the concentration needed to halve the response being measured) is 18.7 ± 1.9 µM and the “SI (selectivity index, CC50/IC50)” value was 5.1. The “IC50 (cytotoxic concentration 50, CC50)” value in series [2] (setting [5]) is 94.78 ± 23.11 µM.
For the compound `O=C(Cn1ccnc1[N+](=O)[O-])NCc1ccccc1` [Benznidazole, reference compound], the results for the IC50 in series [1] and in series [3] were 6.92 ± 0.77 µM and 2.67 ± 0.39 µM, respectively. The results for the “SI (selectivity index, CC50/IC50)” value in series [1] and in series [3] were 57.8 and 149.8, respectively. Further, the “IC50 (cytotoxic concentration 50, CC50)” value in series [2] (setting [5]) is 399.91 ± 1.40 µM. Moreover, the larval viability result is on record as “Alive” in series [4] (setting [6]); “Alive” in series [4] (setting [7]); “Alive” in series [4] (setting [8]); “Alive” in series [4] (setting [9]); “Alive” in series [4] (setting [10]); “Alive” in series [4] (IC90 of compound, 1 h). Moreover, the larval viability result in series [4] (IC90 of compound, 3 h) was “Alive”; in series [4] (IC90 of compound, 12 h), “Alive”; in series [4] (IC90 of compound, 24 h), “Alive”; in series [4] (IC90 of compound, 48 h), “Alive”.
Regarding `N#C/C=C/C(=O)NCc1ccccc1` [C], the IC50 in series [1] stood at 18.8 ± 2.03 µM; in series [3] it was 24.1 ± 6.22 µM. For the same compound, the “SI (selectivity index, CC50/IC50)” value in series [3] is 8.6. The “IC50 (cytotoxic concentration 50, CC50)” value in series [2] (setting [5]) turned out to be 208.01 ± 13.44 µM. Besides, the larval viability result was “Alive” in series [4] (setting [6]); “Alive” in series [4] (setting [7]); “Alive” in series [4] (setting [8]); “Alive” in series [4] (setting [9]); “Alive” in series [4] (setting [10]); “Alive” in series [4] (IC90 of compound, 1 h). In addition, the larval viability entry is reported as “Alive” in series [4] (IC90 of compound, 3 h); “Alive” in series [4] (IC90 of compound, 12 h); “Alive” in series [4] (IC90 of compound, 24 h); “Alive” in series [4] (IC90 of compound, 48 h).
For the compound `N=C1C=CC(=O)N1Cc1ccccc1` [D], in series [1], the IC50 came out at 12.4 ± 1.49 µM and the “SI (selectivity index, CC50/IC50)” value came to 6.9. For the same compound, in series [2] (mouse), the “IC50 (cytotoxic concentration 50, CC50)” value came to 85.32 ± 3.71 µM.
As for `COc1ccc(CNC(=O)/C=C/C#N)cc1` [E], in series [1], the half-inhibitory concentration (IC50) is greater than 100 µM and the “SI (selectivity index, CC50/IC50)” value is listed as less than 3.2. In series [2] (setting [5]), the “IC50 (cytotoxic concentration 50, CC50)” value was 319.61 ± 60.22 µM.
In the case of `COc1ccc(CN2C(=N)C=CC2=O)cc1` [F], the “SI (selectivity index, CC50/IC50)” value in series [1] is given as 0.8. The “IC50 (cytotoxic concentration 50, CC50)” value in series [2] (mouse) was 2.82 ± 1.39 µM.
As for `COc1ccc(NC(=O)/C=C/C#N)cc1` [G], the IC50 in series [1] worked out at 20.7 ± 2.66 µM; in series [3], 10.6 ± 3.05 µM. The “SI (selectivity index, CC50/IC50)” value in series [3] is on record as 25.2. Also, the “IC50 (cytotoxic concentration 50, CC50)” value in series [2] (setting [5]) was found to be 266.62 ± 42.48 µM. The larval viability result in series [4] (setting [6]) is “Alive”; in series [4] (setting [7]) it was “Alive”; in series [4] (setting [8]), “Alive”; in series [4] (setting [9]), “Alive”; in series [4] (setting [10]), “Alive”; in series [4] (IC90 of compound, 1 h), “Alive”. The larval viability entry is recorded as “Alive” in series [4] (IC90 of compound, 3 h); “Alive” in series [4] (IC90 of compound, 12 h); “Alive” in series [4] (IC90 of compound, 24 h); “Alive” in series [4] (IC90 of compound, 48 h).
On to `COc1ccc(N2C(=N)C=CC2=O)cc1` [H], for which the “SI (selectivity index, CC50/IC50)” value in series [1] is 0.9. Further, the “toxicity of Z isomer relative to E isomer (times more toxic)” value in series [2] (G–H isomer pair, murine macrophages) came out at 100. Besides, the “IC50 (cytotoxic concentration 50, CC50)” value in series [2] (setting [5]) turned out to be 2.42 ± 1.58 µM.
Regarding Triton [reference compound], the larval viability result is “Alive” in series [4] (0.01%, 1 h); “Alive” in series [4] (0.01%, 3 h); “Dead” in series [4] (0.01%, 12 h); “Dead” in series [4] (0.01%, 24 h); “Dead” in series [4] (0.01%, 48 h); “Alive” in series [4] (0.5%, 1 h). For the same compound, the larval viability result was “Dead” in series [4] (0.5%, 3 h); “Dead” in series [4] (0.5%, 12 h); “Dead” in series [4] (0.5%, 24 h); “Dead” in series [4] (0.5%, 48 h); “Dead” in series [4] (1%, 1 h); “Dead” in series [4] (1%, 3 h). Further, the larval viability entry in series [4] (1%, 12 h) is listed as “Dead”; in series [4] (1%, 24 h), “Dead”; in series [4] (1%, 48 h), “Dead”.

(Values after publication PMC11436024, “E-Cyanoacrylamides and 5-Imino Pyrrolones against Trypanosoma cruzi: Activity and Induced Mechanisms of Cell Death” (Tropical Medicine and Infectious Disease, 2024).)
